Where a SMILES comes first, the peptide text is derived from it.
Experiments:
diet induced obese mice [1] = assay: Daily CAP-TAC1 treatment of diet induced obese mice with pair fed group; assay type: in vivo, mouse; conditions: 10 mg/kg daily
Description: FIG. 10. […] (A) Body weight change and (B) food intake of diet induced obese mice injected with vehicle (18:1:1 Saline: DMSO: Kolliphor EL), 10 mg/kg CAP-TAC1 (pGlu-FFGLM-NH2), and vehicle pair fed to CAP-TAC1 group. (N=6 for vehicle, N=7 for CAP-TAC1 and pair fed groups, error bars are SEM, and P values calculated with two-way ANOVA.)
CAP-TAC1 treatments in mice. Injected diet induced obese (on high fat diet, 4 months old, male, C57BL/6J, Jackson cat #380050) mice daily with vehicle (18:1:1 Saline: DMSO: Kolliphor EL) or 10 mg/kg CAP-TAC1 (pGlu-FFGLM-NH2). The pair fed group was started one day later and fed the same food the CAP-TAC1 mice ate daily. Mice were singly housed and injected daily ~12 μm. Mouse body weights and food weights were measured at the same time. (N=6 for vehicle, N=7 for CAP-TAC1 and pair fed groups.)

human TACR1 = target: T1, human TACR1 (Homo sapiens, UniProt P25103); assay: human TACR1-beta arrestin recruitment assay (PathHunter beta-arrestin CHO-K1 cells); assay type: cell-based; conditions: human TACR1-transfected PathHunter beta-arrestin CHO-K1 cells
T1 construct: host or cells: PathHunter beta-arrestin CHO-K1 cells
T1 sequence (P25103 whole entry): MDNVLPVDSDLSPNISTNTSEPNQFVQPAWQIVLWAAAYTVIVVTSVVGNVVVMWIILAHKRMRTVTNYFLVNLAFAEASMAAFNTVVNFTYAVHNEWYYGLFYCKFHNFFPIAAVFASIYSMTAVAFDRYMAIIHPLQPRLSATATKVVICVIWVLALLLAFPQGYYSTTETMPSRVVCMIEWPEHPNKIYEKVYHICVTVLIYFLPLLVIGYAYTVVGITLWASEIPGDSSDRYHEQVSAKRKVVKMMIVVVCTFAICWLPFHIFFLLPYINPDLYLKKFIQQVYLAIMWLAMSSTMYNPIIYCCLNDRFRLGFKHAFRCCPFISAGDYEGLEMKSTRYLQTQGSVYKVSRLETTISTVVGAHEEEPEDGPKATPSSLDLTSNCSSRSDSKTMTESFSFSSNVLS
Text: (§1) FIG. 4. […] (A) Schematic and annotation of the primary amino acid sequence for full-length mouse TAC1 preproprotein and its cleavage products. […] For (B), N=2 per concentration; for (C), N=3 per condition. For (B,C), data are shown as means±SEM. * P<0.05, ** P<0.01 versus control by Student's t-test.

diet induced obese mice [2] = assay: Oxygen consumption after single CAP-TAC1 injection, metabolic chambers; assay type: in vivo, mouse; conditions: single injection at T=0, 10 mg/kg (FIG. 11 legend), over 24 hours
Description: FIG. 11. CAP-TAC1 acutely induces oxygen consumption over 24 hours. Oxygen consumption (VO2) of diet induced obese mice injected with a single injection at T=0 vehicle (18:1:1 Saline: DMSO: Kolliphor EL) or 10 mg/kg CAP-TAC1 (pGlu-FFGLM-NH2). (N=4 for vehicle and CAP-TAC1 groups, error bars are SEM, and P values calculated with two-way ANOVA.)
Metabolic chamber studies. For acute energy expenditure studies, food intake, RER, movement, VO2, and VCO2 were collected with CLAMS Oxymax Metabolic Cages. Mice were placed individual metabolic cages for 24 hours prior to experiment. For CAP-GDF15 experiments, mice were injected with either vehicle, 50 mg/kg CAP-GDF15, or 50 mg/kg scrambled CAP-GDF15 at 5 μm at T=0. For CAP-TAC1 experiments, mice were injected with either vehicle (18:1:1 Saline: DMSO: Kolliphor EL) or […] CAP-TAC1 (pGlu-FFGLM-NH2) at ~12 μm (T=0). Food intake, RER, movement, VO2, and VCO2 were collected every 7 minutes for […] immediately after injection. All experiments were done with 3-5 month old DIO mice (Jackson, stock 380050), fed high fat diet ad libitum.

[3] = Half-life of peptides incubated in mouse plasma, levels by LC-MS
Description: as §1
Half-life calculations of CAP-TAC1 in plasma. 10 µM of either synthetic CAP-TAC1 or SP was incubated with 100 μl of mouse plasma. Samples were incubated at 37° C. for 0, 10, 30, 60, or 90 minutes (N=3 for each time point). At the indicated time point, 1 μl of HALT protease inhibitor was immediately added, and plasma was boiled and prepared using the peptidomics workflow described above. […] Half-lives were calculated using an exponential decay fit.

diet induced obese mice [4] = assay: Food intake 2 hours post injection of CAP-GDF15 human homologue; assay type: in vivo, mouse; conditions: 50 mg/kg, single injection, versus vehicle
Description: FIG. 12. Human CAP-GDF15 homologue inhibits food intake. Food intake of diet induced obese mice 2 hours post injection with vehicle or 50 mg/kg CAP-GDF15 human homologue (pGlu-[…]-NH2). (N=8 mice/group, error bars are SEM, and P values calculated with two-sided Student's T test.)
Human CAP-GDF15 treatments in mice. Singly housed diet induced obese (on high fat diet, 4 months old, male, C57BL/6J, Jackson cat #380050) mice were injected with vehicle (18:1:1 Saline: DMSO: Kolliphor EL) or 50 mg/kg CAP-GDF15 human homologue (pGlu-[…]-NH2) once at ~5 μm. Food weight was measured before injection and 2 hours post to calculated food intake. (N=8 mice/group)

Q: Which results are given for CSCC[C@H](NC(=O)[C@H](CC(C)C)NC(=O)CNC(=O)[C@H](Cc1ccccc1)NC(=O)[C@H](Cc1ccccc1)NC(=O)[C@@H]1CCC(=O)N1)C(N)=O [CAP-TAC1, pGlu-FFGLM-NH2] (HELM PEPTIDE1{[Glp].F.F.G.L.M.[am]}$$$$V2.0)?
A: food intake (diet induced obese mice [1]; versus vehicle): independent of any changes of food intake; body weight change (diet induced obese mice [1]; versus vehicle and pair fed group): induces body weight loss; EC50 (human TACR1; read-out: ED50, agonism of TACR1): 0.7 nM; Emax (human TACR1; read-out: maximal activation, % of maximal response): 96.6%; oxygen consumption (VO2) (diet induced obese mice [2]): induces an increase in oxygen consumption; peptide level in mouse plasma after 90 min [3]: still detectable; half-life at 10 µM ([3]; mouse, plasma): 14.4 min

Q: For “pGlu-LELHLRPQAAR-NH2 (HELM PEPTIDE1{[Glp].L.E.L.H.L.R.P.Q.A.A.R.[am]}$$$$V2.0; SMILES CC(C)C[C@H](NC(=O)[C@@H]1CCC(=O)N1)C(=O)N[C@@H](CCC(=O)O)C(=O)N[C@@H](CC(C)C)C(=O)N[C@@H](Cc1c[nH]cn1)C(=O)N[C@@H](CC(C)C)C(=O)N[C@@H](CCCNC(=N)N)C(=O)N1CCC[C@H]1C(=O)N[C@@H](CCC(N)=O)C(=O)N[C@@H](C)C(=O)N[C@@H](C)C(=O)N[C@@H](CCCNC(=N)N)C(N)=O) [human homologue of CAP-GDF15]”, which “food intake 2 hours post injection” value (diet induced obese mice [4]) is on record?
A: The value was “acutely inhibits food intake”.
